Test results as given in patent US20050019923A1, “Dendrimers for use in targeted delivery” (priority 2001, published 2005).

System: A431 cell line
Assay: In vitro cytotoxicity assay (MTT)
Format: cell-based, human
Details: 4 h exposure, 72 h incubation
Method: A human epidermoid carcinoma cell line (A431, ATCC CRL-1555) was maintained in Dulbecco's minimum essential medium (DMEM) supplemented with 10% foetal calf serum (FCS) and 2 mM glutamine (GibcoBRL, UK) at 10% CO2 and 37° C.
Polypropylenimine dendrimer/dendrimer derivative formulation cytotoxicity was assessed by the measurement of the IC50 in a standard MTT (3-[4,5-dimethylthiazol-2-yl]-2,5-diphenyltetrazolium bromide thiazolyl blue—indicator dye) assay. Briefly, 96 well microtitre plates were seeded with 5000 cells per well and incubated for 24 hrs. Dilutions of the dendrimer/dendrimer—DNA formulations (100 μl) in tissue culture medium (Opti-Mem) were incubated with the cells for 4 h. The samples were then replaced with fresh DMEM daily and incubated for 72 h. After this period the indicator dye (50 μl, 50 mg ml^−1) was added to each well and incubated with the cells for 4 h in the dark. The medium and indicator dye were then removed and the cells lysed with dimethylsulphoxide (200 μl). After addition of Sorensen's glycine buffer (25 μl) the absorption was measured at 570 nm. Values were expressed as a percentage of the control to which no vesicles were added.

For `CCCCCCCC/C=C\CCCCCCCC(=O)OCC(C[N+](C)(C)C)OC(=O)CCCCCCC/C=C\CCCCCCCC.COS(=O)(=O)[O-]` (stereo not shown) [DOTAP, N-[1-(2,3-dioleoyloxy)propyl]-N,N,N-trimethylammonium methylsulphate], the “IC50, in vitro cytotoxicity” value was 62 µg/mL.
